The values that follow come from PubChem BioAssay AID463206 (Broad Institute, 2010).

Calls of active or inactive are those of the source.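 Rule for the calls: active = caspase luminescence falls with dose and the half-maximal concentration AC50 from the fitted curve is at or below a set limit; inconclusive = flat fit at 30 to 70% signal loss, or invalid fit; inactive = AC50 above the limit, or signal rises instead.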

The subject of the assay is INS-1E cytokine-induced caspase-3/7, Caspase-Glo luminescence, 48 h. Description: suppression of cytokine-driven beta-cell apoptosis – INS-1E rat cells, luminescence, orthogonal assay for beta-cell apoptosis protection project, dose response (AID 463206).
By AC50 is commonly meant the concentration giving half of the maximal activity seen. As for `CN(C)c1ccc(/C=C(\C#N)C(=O)OCC(=O)N(C)C2CCS(=O)(=O)C2)cc1` (configuration not stated), the AC50 is > 26 µM (inactive). The result for `CC(C)(C)C1C/C(=C/c2ccccn2)C(=O)/C(=C/c2ccccn2)C1` (configuration not stated) reads > 26 µM (inactive); that for `O=C(NNC(=O)c1ccccc1OCc1ccccc1)c1ccccc1O`, > 26 µM (inactive). The result for `Cc1ccc(NC(=O)Cn2c(=O)oc3cc(S(=O)(=O)N4CCC(C)CC4)ccc32)cc1C` reads > 26 µM (inactive). Take `CCOc1ccc(C(=O)c2cc([N+](=O)[O-])ccc2N2CCOCC2)cc1`: the AC50 was 0.83 µM. The result for `CC(NC(=O)C1CCC(C(=O)NC(C)c2ccccc2)CC1)c1ccccc1` (configuration not stated) reads > 26 µM (inactive); that for `CCCCCc1ccc(OCCCC[n+]2ccc(C)cc2)c(CCCCC)c1`, > 26 µM (inactive). On to `Cc1oc2c(c1C(=O)c1ccccc1)C(=O)C(=O)c1ccccc1-2`, for which the AC50 is > 26 µM (inactive). The result for `CC(Oc1cccc(Cl)c1)C(=O)Nc1cc(S(=O)(=O)N2CCOCC2)ccc1N1CCCCC1` (configuration not stated) reads > 26 µM (inactive).

Turning to `CCOC(=O)c1c(NC(=O)c2cc(-c3ccc(Cl)s3)nc3ccccc23)sc(C(N)=O)c1C`, the AC50 is > 26 µM (inactive). The figure for `Cc1ccc(C(=O)C[n+]2cc(-c3ccccc3)n3c2CCCCC3)cc1` is > 26 µM (inactive); for `CCC(CO)[n+]1c(C)cc(/C=C2\Sc3ccccc3N2Cc2ccccc2)cc1C` (configuration not stated) it is > 26 µM (inactive). The result for `CC1(C)CC(N2CCN(Cc3ccccc3)CC2)=CC(=[N+]2CCCCC2)C1` reads > 26 µM (inactive). The figure for `Cc1sc2ncnc(N3CCN(S(=O)(=O)c4ccccc4)CC3)c2c1C` is > 26 µM (inactive); for `C(=N\Nc1ncnc2sc3c(c12)CCC3)/c1cccs1` it is > 26 µM (inactive); for `O=C(Nc1cc(S(=O)(=O)N2CCCCC2)ccc1Cl)c1ccccc1NS(=O)(=O)c1ccc(F)cc1` it is > 26 µM (inactive). On to `Cc1nnsc1C(=O)N/N=C/c1ccc2ccccc2c1O`, for which the AC50 is > 26 µM (inactive). The figure for `C=CCNC(=S)N/N=C(\C)c1ccccn1` is > 26 µM (inactive). For `COc1ccc(NC(=O)/C(Cl)=C(/Cl)S(=O)Cc2ccccc2)cn1` (configuration not stated), the AC50 was > 26 µM (inactive).

With `Cc1ccc(-c2cc(-c3ccc(C)cc3)[n+](-c3ccc(C(=O)[O-])cc3)c(-c3ccc(C)cc3)c2)cc1`, the AC50 was > 26 µM (inactive). Regarding `COc1cc2nc(N3CCN(c4cc(C)ccc4C)CC3)nc(N)c2cc1OC`, the AC50 is > 26 µM (inactive). The result for `Cc1ccccc1CS(=O)(=O)c1nnc([C@H](Cc2ccccc2)NC(=O)OC(C)(C)C)o1` reads > 26 µM (inactive); that for `CC(=O)c1cn(CCOc2cc(C)ccc2C)c2ccccc12`, > 26 µM (inactive); that for `CCSc1ccc(NC(=O)c2cccnc2)cc1`, > 26 µM (inactive). The figure for `Cc1cc(C)c2sc(NNC(=O)c3ccc(S(=O)(=O)N4CCc5ccccc5C4)cc3)nc2c1` is > 26 µM (inactive); for `CCc1ccc(C2=NNC(=Nc3cccc(S(=O)(=O)N(C)C)c3)SC2)cc1` it is > 26 µM (inactive); for `CCOC(=O)C(=Cc1ccc(Br)cc1)C(=O)OCC` it is > 26 µM (inactive). The figure for `S=C(Nc1ccc(Cl)cc1)Nc1cccc2cnccc12` is > 26 µM (inactive); for `CNC(=O)c1cc(Oc2ccc(NC(=O)Nc3ccc(Cl)c(C(F)(F)F)c3)cc2)ccn1` it is > 26 µM (inactive); for `COc1ccc2cc1Oc1ccc(cc1)C[C@H]1c3c(cc(OC)c4c3Oc3c(ccc5c3[C@H](C2)N(C)CC5)O4)CCN1C` it is > 26 µM (inactive). In the case of `CCC1=NN(C(=O)c2ccccc2O)C(O)(c2ccccc2)C1` (configuration not stated), the AC50 is > 26 µM (inactive). The result for `O=C(N/N=C/c1cc(Cl)ccc1O)c1ccccc1Br` reads > 26 µM (inactive); that for `CC(=O)N(Cc1ccc(F)cc1)C1=C(NCCc2ccccc2)C(=O)c2ccccc2C1=O`, > 26 µM (inactive); that for `O=C(NNC(=S)Nc1ccc(Cl)c(Cl)c1)c1ccccn1`, > 26 µM (inactive).

With `C#CCOCCOCCOCCNc1nc(N2CCN(C(=O)CCCCCCCCCCNC(=O)[C@H](CCCCN)n3cc(C[C@@H](C)CC)nn3)CC2)nc(N2CCN(C(=O)CCCCCCCCCCNC(=O)[C@@H]([C@H](C)O)n3cc(C)nn3)CC2)n1`, the AC50 is > 26 µM (inactive). For `CN(C)c1cc[n+](CC(=O)c2ccc(-c3ccccc3)cc2)cc1`, the AC50 is > 26 µM (inactive).

As to `COc1ccc(C(=O)N/N=C/c2sc3ccccc3c2O)cc1`, the AC50 is > 26 µM (inactive). Regarding `COc1ccc(Cn2c(SCc3ccccc3C)nc3cc(OC)c(OC)cc3c2=N)cc1`, the AC50 was > 26 µM (inactive). The figure for `Cc1ccc(S(=O)(=O)Nc2ccc(NC(=O)Nc3cccc(C(F)(F)F)c3)cc2)cc1` is > 26 µM (inactive); for `Cc1cc(C(=O)N/N=C/c2cc(N=Nc3ccccc3)ccc2O)n[nH]1` it is > 26 µM (inactive). The figure for `Cc1ccc2nc(N(CCCN(C)C)C(=O)c3ccc(S(=O)(=O)N4CCc5ccccc5C4)cc3)sc2c1` is > 26 µM (inactive); for `CN(C)C1CCN(Cc2cc(COCc3ccccc3)c3cccnc3c2O)C1` (configuration not stated) it is > 26 µM (inactive). The figure for `O=S(=O)([N-]c1nc2ccccc2nc1-[n+]1ccc(Cc2ccccc2)cc1)c1ccc(Br)s1` is > 26 µM (inactive). For the molecule `Cc1cc2c(NCCc3ccccc3)ncnc2s1`, the AC50 is > 26 µM (inactive). The result for `O=C1C=C(Nc2ccccc2O)c2ccccc2C1=O` reads > 26 µM (inactive); that for `N#Cc1c([N+](=O)[O-])cc([N+](=O)[O-])cc1S(=O)(=O)Cc1ccccc1`, > 26 µM (inactive); that for `CCOc1ccc(OCc2ccc(C(=O)N/N=C(\C)c3ccccn3)cc2)cc1`, > 26 µM (inactive). The result for `COc1cc(C(=O)N/N=C(\c2ccccc2)c2ccccn2)cc(OC)c1OC` reads > 26 µM (inactive); that for `O=C(c1ccc(F)c(S(=O)(=O)N2CCOCC2)c1)N1CCN(c2ccc(F)cc2)CC1`, > 26 µM (inactive). Turning to `NC(=O)c1c(-c2ccc(Cl)cc2Cl)csc1NC(=O)Cc1ccccc1`, the AC50 was > 26 µM (inactive). The result for `COc1ccc(Br)cc1CN1CCN(Cc2c[nH]c3ccccc23)CC1` reads > 26 µM (inactive); that for `O=C1C=C(N2CCCCC2)c2ccccc2C1=O`, > 26 µM (inactive); that for `CCCC12C(=O)C(C)(C(c3ccccc3)=C1c1ccccc1)C1C(=O)N(c3ccc(C)cc3)C(=O)C12` (configuration not stated), > 26 µM (inactive).

On to `Cn1nc(C(C)(C)C)cc1C(=O)NCc1cc(F)cc2c1OCOC2`, for which the AC50 was > 26 µM (inactive).

On to `O=C(N/N=C/c1cc(Cl)ccc1O)c1cccnc1`, for which the AC50 was > 26 µM (inactive). Consider `Oc1c(Br)cc(Br)cc1/C=N/NC(=S)N[C@H]1CC2C=CC1C2` (some centres not stated), for which the AC50 is > 26 µM (inactive). Take `COC(=O)C1=C(C)N(Cc2ccccc2)C(=NCc2cccc(C(F)(F)F)c2)N[C@H]1c1cccc(F)c1`: the AC50 is > 26 µM (inactive). Regarding `C=CCn1c(SCN2C(=O)c3ccccc3C2=O)nc2ccc(Cl)cc2c1=O`, the AC50 is > 26 µM (inactive). The figure for `Cc1cc(=O)[nH]c(N/N=C/c2ccccn2)n1` is > 26 µM (inactive). The figure for `COc1cc(C(=O)Oc2c(CN3CCOCC3)cc(Cl)c3cccnc23)cc(OC)c1OC` is > 26 µM (inactive); for `COc1cc(NC(=O)c2cc3ccccc3cc2O)c(OC)cc1Cl` it is > 26 µM (inactive). The figure for `COc1cc(C)c(C(=O)CC(=O)c2c(C)cc(OC)cc2C)c(C)c1` is > 26 µM (inactive).

In the case of `COc1ccc(-c2ccc3c(c2)S(=O)(=O)c2cccc(C(=O)NCCOc4ccccc4Cl)c2C3=O)cc1OC`, the AC50 was > 26 µM (inactive). For `COc1cccc(/C=N/NC(=O)c2c(C)nc3ccc(Cl)cn23)c1O`, the AC50 is > 26 µM (inactive). The figure for `Cc1cc(N2CCN(S(=O)(=O)c3ccc(Cl)cc3)CC2)c2ccccc2n1` is > 12 µM (inactive).

In the case of `CN1/C(=C\C(=O)COC(=O)c2ccc(O)c(O)c2)C(C)(C)c2ccccc21`, the AC50 is > 26 µM (inactive). The figure for `CCN(CC)c1ccc(N=Cc2ccccc2[N+](=O)[O-])cc1` is > 26 µM (inactive); for `Cc1ccccc1N=Nc1ccc(O)c2ncccc12` it is > 26 µM (inactive). The figure for `COc1cnc(-c2ccccn2)nc1Oc1ccc(Cl)c2ccccc12` is > 26 µM (inactive). As for `CC(C)(C)c1ccc(-n2ncc3c2CCCC3NC(=O)C2(C(N)=O)CC2)cc1` (configuration not stated), the AC50 is > 26 µM (inactive). The figure for `CC(O)CNc1nc2sc3c(c2c(=O)n1Cc1ccco1)CCCCC3` (configuration not stated) is > 12 µM (inactive); for `O=c1cc(CSc2ccc(Cl)cc2)nc(-c2ccccn2)[nH]1` it is > 26 µM (inactive). The result for `CC(=O)c1c(C)[nH]c(C(=O)OCC(=O)Nc2ccc(C)cc2[N+](=O)[O-])c1C` reads > 26 µM (inactive). The result for `O=S(=O)(/C(=C/c1ccc(C(F)(F)F)cc1)c1nc2ccccc2[nH]1)c1ccccc1` reads > 26 µM (inactive). As for `C/C(=N\Nc1nc(-c2ccccn2)nc2ccccc12)c1ccc(F)cc1`, the AC50 is > 26 µM (inactive). The result for `CN1/C(=C\C=N\NC(=O)c2ccc(O)cc2)C(C)(C)c2ccccc21` reads > 26 µM (inactive); that for `COc1ccccc1-n1c(-c2ccccc2)c[n+]2c1CCc1ccccc1-2`, > 26 µM (inactive). The figure for `CN1CCN(C2=C(NS(=O)(=O)c3cccs3)C(=O)c3ccccc3C2=O)CC1` is > 26 µM (inactive). The figure for `COc1cccc(/C=N/Nc2snc(SC)c2C#N)c1O` is > 26 µM (inactive). Consider `Cc1ccn2c(Nc3ccccc3C)c(-c3ccccn3)nc2c1`, for which the AC50 was > 26 µM (inactive). The result for `CC(=O)c1c(C)n(CC(=O)NCc2ccco2)c2ccccc12` reads > 26 µM (inactive). For `COc1ccccc1C(CCNCc1ccc(N(C)C)cc1)c1ccc(OC(C)C)cc1` (configuration not stated), the AC50 is > 26 µM (inactive).
